Laboratory results as given in patent US10626115B2, “Fused pyrimidinone and triazinone derivatives containing bridged nitrogen, their process of preparation and their therapeutic uses as antifungal and/or antiparasitic agents” (UNIVERSITE DE NANTES, priority 2015, dated 2020).
Converted amounts (≈) assume the structure as drawn.

What was measured:
[1] = tested on: fluconazole-susceptible C. albicans strain: CAAL93; experiment: Antifungal susceptibility, spectrofluorimetric microdilution, CAAL93; type: cell-based; details: Candida albicans, read-out: MIC values CAAL93
Method: (§1) Eight strains of Candida spp. with various azoles-susceptibilities were used: • One fluconazole-susceptible C. albicans strain: CAAL93 • Two fluconazole-resistant C. albicans strains: CAAL111 (efflux pump) and CAAL117 (erg11 mutations+voriconazole-resistant) • five fluconazole-resistant Candida non albicans strains: C. krusei (CAKR7, CAKR8), C. glabrata (CAGL2), C. parapsilosis s.l. (CAPA1, CAPA2).
(§2) Antifungal susceptibility was evaluated with a spectrofluorimetric microdilution method.

[2] = tested on: fluconazole-resistant C. albicans strain CAAL111 (efflux pump); experiment: microbe, parasite or virus in culture; type: cell-based; details: Candida albicans, read-out: MIC values CAAL111
Method: as §1, §2

[3] = tested on: fluconazole-resistant C. glabrata (CAGL2); experiment: microbe, parasite or virus in culture; type: cell-based; details: Nakaseomyces glabratus, read-out: MIC values CAGL2
Method: as §1, §2

[4] = tested on: fluconazole-resistant C. krusei (CAKR7); experiment: microbe, parasite or virus in culture; type: cell-based; details: Pichia kudriavzevii, read-out: MIC values CAKR7
Method: as §1, §2

[5] = tested on: fluconazole-resistant C. krusei (CAKR8); experiment: microbe, parasite or virus in culture; type: cell-based; details: Pichia kudriavzevii, read-out: MIC values CAKR8
Method: as §1, §2

[6] = tested on: fluconazole-resistant C. parapsilosis s.l. (CAPA1); experiment: microbe, parasite or virus in culture; type: cell-based; details: Lodderomyces parapsilosis, read-out: MIC values CAPA1
Method: as §1, §2

[7] = tested on: fluconazole-resistant C. parapsilosis s.l. (CAPA2); experiment: microbe, parasite or virus in culture; type: cell-based; details: Lodderomyces parapsilosis, read-out: MIC values CAPA2
Method: as §1, §2

[8] = tested on: A. fumigatus susceptible strain ASFU76; experiment: Antifungal susceptibility, spectrofluorimetric microdilution, ASFU76; type: cell-based, Aspergillus fumigatus; details: Aspergillus fumigatus, read-out: MIC values ASFU76
Method: (§3) Eleven strains of A. fumigatus with various itraconazole susceptibility were used: • Five susceptible strains: ASFU7, ASFU35A, ASFU38A, ASFU76 and ASFU78. • Six itraconazole-resistant strains: ASFU77 (erg11 mutation), ASFU13, ASFU17, ASFU19, ASFU20, ASFU23.
(§4) Antifungal susceptibility was evaluated with a spectrofluorimetric microdilution method. MIC was the concentration that was able to inhibit 80% of fluorescence measured in the control wells.

[9] = tested on: A. fumigatus susceptible strain ASFU35A; experiment: Antifungal susceptibility, spectrofluorimetric microdilution, ASFU35A; type: cell-based, Aspergillus fumigatus; details: Aspergillus fumigatus, read-out: MIC values ASFU35A
Method: as §3, §4

[10] = tested on: A. fumigatus susceptible strain ASFU38A; experiment: Antifungal susceptibility, spectrofluorimetric microdilution, ASFU38A; type: cell-based, Aspergillus fumigatus; details: Aspergillus fumigatus, read-out: MIC values ASFU38A
Method: as §3, §4

[11] = tested on: A. fumigatus susceptible strain ASFU7; experiment: Antifungal susceptibility, spectrofluorimetric microdilution, ASFU7; type: cell-based, Aspergillus fumigatus; details: Aspergillus fumigatus, read-out: MIC values ASFU7
Method: as §3, §4

[12] = tested on: A. fumigatus susceptible strain ASFU78; experiment: Antifungal susceptibility, spectrofluorimetric microdilution, ASFU78; type: cell-based, Aspergillus fumigatus; details: Aspergillus fumigatus, read-out: MIC values ASFU78
Method: as §3, §4

[13] = tested on: A. fumigatus itraconazole-resistant strain ASFU77 (erg11 mutation); experiment: Antifungal susceptibility, spectrofluorimetric microdilution, ASFU77; type: cell-based, Aspergillus fumigatus; details: for MIC: Aspergillus fumigatus, read-out: MIC values ASFU77
Method: as §3, §4

[14] = Cytotoxicity on HeLa cells; type: cell-based, Human; details: human, 50% inhibition of control fluorescence
Method: Hela Human cell line was used in view to evaluate cytotoxicity. It was evaluated with a spectrofluorimetric microdilution method. IC50 was the concentration that was able to inhibit 50% of fluorescence measured in the control wells.

[15] = tested on: Candida albicans strain (CAAL93); experiment: Murine systemic candidiasis; type: in vivo; details: neutropenic Swiss mice, CAAL93 i.v., 10 mg/kg per os once a day for 5 days
Method: Transiently neutropenic female Swiss mice were used for experiments on systemic candidiasis and invasive aspergillosis.
Mice were inoculated intravenously with a Candida albicans strain (CAAL93). Treatment was administrated once a day (10 mg/kg per os) for 5 days. […] Fungal burden of the kidney was evaluated in dead animals during the experimentation or in animals sacrificed at the end of the experimentation.

[16] = tested on: promastigote stage of a Leishmania mexicana strain; experiment: Anti-Trypanosomatidae activity, promastigote stage, spectrofluorimetric microdilution; type: cell-based
Method: Compounds were evaluated on the promastigote stage of a Leishmania mexicana strain using a spectrofluorimetric microdilution method. Inhibitory concentration 50 (IC50) was the concentration that inhibited 50% of the control growth.

[17] = tested on: fluconazole-resistant C. albicans strain CAAL117 (erg11 mutations+voriconazole-resistant); experiment: microbe, parasite or virus in culture; type: cell-based; details: for MIC: Candida albicans, read-out: MIC values CAAL117; for fold more active than voriconazole against CAAL117: compared with voriconazole
Method: as §1, §2

[18] = tested on: A. fumigatus itraconazole-resistant strain ASFU13; experiment: Antifungal susceptibility, spectrofluorimetric microdilution, ASFU13; type: cell-based, Aspergillus fumigatus; details: for MIC: Aspergillus fumigatus, read-out: MIC values ASFU13
Method: as §3, §4

[19] = tested on: A. fumigatus itraconazole-resistant strain ASFU17; experiment: Antifungal susceptibility, spectrofluorimetric microdilution, ASFU17; type: cell-based, Aspergillus fumigatus; details: Aspergillus fumigatus, read-out: MIC values ASFU17
Method: as §3, §4

[20] = tested on: A. fumigatus itraconazole-resistant strain ASFU19; experiment: Antifungal susceptibility, spectrofluorimetric microdilution, ASFU19; type: cell-based, Aspergillus fumigatus; details: Aspergillus fumigatus, read-out: MIC values ASFU19
Method: as §3, §4

[21] = tested on: A. fumigatus itraconazole-resistant strain ASFU20; experiment: Antifungal susceptibility, spectrofluorimetric microdilution, ASFU20; type: cell-based, Aspergillus fumigatus; details: for MIC: Aspergillus fumigatus, read-out: MIC values ASFU20
Method: as §3, §4

[22] = tested on: A. fumigatus itraconazole-resistant strain ASFU23; experiment: Antifungal susceptibility, spectrofluorimetric microdilution, ASFU23; type: cell-based, Aspergillus fumigatus; details: for MIC: Aspergillus fumigatus, read-out: MIC values ASFU23
Method: as §3, §4

Structure (SMILES) | MIC [1] [µg/mL] | MIC [2] [µg/mL] | MIC [3] [µg/mL] | MIC [4] [µg/mL] | MIC [5] [µg/mL] | MIC [8] [µg/mL] | MIC [9] [µg/mL] | MIC [10] [µg/mL] | MIC [11] [µg/mL] | MIC [12] [µg/mL] | MIC [13] [µg/mL] | MIC [17] [µg/mL] | fold more active than voriconazole against CAAL117 [17] [fold] | MIC [18] [µg/mL] | MIC [19] [µg/mL] | MIC [20] [µg/mL] | MIC [21] [µg/mL] | MIC [22] [µg/mL] | melting point [°C] | also measured
C[C@@H](n1ccc2nc(-c3ccccc3)cn2c1=O)[C@](O)(Cn1cncn1)c1ccc(F)cc1F [Compound 29, 6-[(1R,2R)-2-(2,4-Difluorophenyl)-2-hydroxy-1-methyl-3-(1H-1,2,4-triazol-1-yl)propyl]-2-phenylimidazo[1,2-c]pyrimidin-5-one] | < 0.001 | 0.005 ± 0.002 (≈ 0.0108 µM) | 0.15 ± 0.01 (≈ 0.324 µM) | 1.28 ± 0.33 (≈ 2.77 µM) | 0.07 ± 0.02 (≈ 0.151 µM) | 6.66 ± 0.53 (≈ 14.4 µM) | 6.36 ± 1.42 (≈ 13.8 µM) | 6.86 ± 1 (≈ 14.8 µM) | 2.49 ± 0.13 (≈ 5.38 µM) | 5.93 ± 0.72 (≈ 12.8 µM) | 28.2 ± 21.9 (≈ 61 µM) | – | – | – | – | – | – | – | – | MIC [6]: 0.009 ± 0.003 µg/mL (≈ 0.0195 µM); MIC [7]: 0.007 ± 0.004 µg/mL (≈ 0.0151 µM); IC50 [14]: 25 µM; survival compared with the non-treated group ([15]; 28 days (compound 51, 14 days), p<0.05): significant longer survival; activity on fungal burden of the kidney compared to FLC ([15]; p<0.05): significantly higher when compared to FLC; fungal burden of the kidney ([15]; p<0.05 (compound 51 p<0.001)): significantly decreased; effectiveness against the promastigote stage of L. Mexicana, in words [16]: effective; IC50 ([16]; Leishmania mexicana, promastigote stage, 50% of control growth, read-out: L. mexicana (IC50 μM)): 2.8 ± 0.3 µM
C[C@@H](n1ncc2cc(-c3ccc(Cl)cc3)cn2c1=O)[C@](O)(Cn1cncn1)c1ccc(F)cc1F [Compound 48, 7-(4-Chlorophenyl)-3-[(1R,2R)-2-(2,4-difluorophenyl)-2-hydroxy-1-methyl-3-(1,2,4-triazol-1-yl)propyl]-3H-pyrrolo[1,2-d][1,2,4]triazin-4-one] | < 0.001 | 0.018 ± 0.005 (≈ 0.0362 µM) | 0.061 ± 0.008 (≈ 0.123 µM) | 0.019 ± 0.001 (≈ 0.0382 µM) | 0.079 (≈ 0.159 µM) | 6.21 ± 0.18 (≈ 12.5 µM) | 6.11 ± 0.85 (≈ 12.3 µM) | 6.64 ± 1.1 (≈ 13.4 µM) | 6.07 ± 0.05 (≈ 12.2 µM) | 6.26 ± 0.73 (≈ 12.6 µM) | 9.27 ± 1.05 (≈ 18.7 µM) | 0.014 ± 0.001 (≈ 0.0282 µM) | 100 | 2.53 (≈ 5.09 µM) | > 49 | > 49 | 2.51 (≈ 5.05 µM) | 2.48 (≈ 4.99 µM) | 204 to 205 | activity against ITRA-resistant isolate ASFU13, in words [18]: active; MIC values against ITRA-resistant isolate carrying M220T mutation (ASFU77), in words [13]: in the micromolar range; activity against ITRA-resistant isolate ASFU20, in words [21]: active; activity against ITRA-resistant isolate ASFU23, in words [22]: active
C[C@@H](n1ncc2cc(-c3ccc([N+](=O)[O-])cc3)cn2c1=O)[C@](O)(Cn1cncn1)c1ccc(F)cc1F [Compound 50, 3-[(1R,2R)-2-(2,4-Difluorophenyl)-2-hydroxy-1-methyl-3-(1,2,4-triazol-1-yl)propyl]-7-(4-nitrophenyl)-3H-pyrrolo[1,2-d][1,2,4]triazin-4-one] | < 0.001 | 0.017 ± 0.007 (≈ 0.0335 µM) | 0.074 ± 0.038 (≈ 0.146 µM) | 0.066 ± 0.009 (≈ 0.13 µM) | 0.039 ± 0.027 (≈ 0.0769 µM) | 8.23 ± 2.23 (≈ 16.2 µM) | 6.59 ± 0.04 (≈ 13 µM) | 8.86 (≈ 17.5 µM) | 8.31 ± 0.52 (≈ 16.4 µM) | 6.4 ± 1.07 (≈ 12.6 µM) | > 100 | 0.018 ± 0.001 (≈ 0.0355 µM) | 100 | 3.08 (≈ 6.07 µM) | > 50 | > 50 | 21.3 (≈ 42 µM) | 43 (≈ 84.7 µM) | 130 to 131 | –
